Here are results for two molecules from article PMC10376059, “New NADPH Oxidase 2 Inhibitors Display Potent Activity against Oxidative Stress by Targeting p22^phox-p47^phox Interactions” (Antioxidants, 2023).

The term IC50 denotes the concentration that inhibits the measured activity by half. Low values mean higher potency, high ones lower potency.

Each structure is given as a SMILES string.

The target in one experiment is T1, NADPH oxidase (NOX2) (Homo sapiens, UniProt P14598).
T1 construct: HL-60 cells expressed the components of NOX2, including gp91, p22^phox, p47^phox, and p67^phox; endogenous in cells; whole cells in A1, membrane preparations in A3 and A4
T1 sequence (P14598 1-390): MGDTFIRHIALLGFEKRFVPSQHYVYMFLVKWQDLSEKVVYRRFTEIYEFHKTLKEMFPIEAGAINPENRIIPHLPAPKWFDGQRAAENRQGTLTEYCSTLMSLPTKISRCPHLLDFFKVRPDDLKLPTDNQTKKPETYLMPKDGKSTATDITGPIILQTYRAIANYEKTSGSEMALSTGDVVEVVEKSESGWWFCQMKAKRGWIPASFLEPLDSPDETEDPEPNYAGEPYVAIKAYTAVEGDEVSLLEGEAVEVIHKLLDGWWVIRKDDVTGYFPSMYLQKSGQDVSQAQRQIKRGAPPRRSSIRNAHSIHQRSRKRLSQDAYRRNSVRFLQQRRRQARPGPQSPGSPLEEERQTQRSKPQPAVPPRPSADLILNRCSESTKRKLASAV
As to the kind of experiment: NADPH oxidase activity by lucigenin chemiluminescence in HL-60 membrane preparations. Type of experiment: biochemical. The note with it: PMA 0.8 µM, compound 50 µM, vs control. As for the experimental part: Neutrophil-differentiated HL-60 cells (2 × 10^6 cells/mL) were incubated at 37 °C in a humid atmosphere with 5% CO2 and 50 μM of the different acrylonitrile compounds, then PMA 0.8 μM was added and incubated for 1 h to induce the activation of the enzyme NADPH oxidase. As a positive inhibition control, VAS2870 (20 μM) was used. Another two controls were performed: one with cells activated by PMA in the presence of DMSO, and the other (NA, non-activated) with cells in the absence of PMA and the acrylonitrile compounds. In 15 mL conical tubes, 5 mL of cell suspension from each treatment and control condition was transferred at 2 × 10^6 cells/mL and centrifuged at 1000 rpm at 4 °C for 10 min. The supernatant was then discarded, and each pellet was re-suspended in 2 mL of a 4% PBS solution with 2 mM EGTA and 0.25 mM PMSF frozen at −80 °C for 10 min. Then each pellet was thawed on ice. […]
The chemiluminescence analysis of lucigenin derivatives was used to determine the activity of NADPH oxidase in a suspension of membrane preparations of HL-60 cells. […] Chemiluminescence was measured for 1 h at 2 min intervals with a Synnergy H1 hybrid luminometer multi-mode microplate reader and GEN5 program (Biotek Instruments, Inc., Winooski, VT, USA). […] The activity was expressed as relative units of luminescence per second, relative to the control.

Another experiment concerns the target T2, NOX2 (Homo sapiens, UniProt P14598).
T2 construct: HL-60 cells expressed the components of NOX2, including gp91, p22^phox, p47^phox, and p67^phox; endogenous in cells; whole cells in A1, membrane preparations in A3 and A4
T2 sequence (P14598 1-390): T1 sequence (P14598 1-390)
As to the kind of experiment: NADPH oxidase (NOX2) inhibition, DCF fluorescence in PMA-activated neutrophil-differentiated HL-60 cells. Type of experiment: cell-based. To be noted: for inhibition of NOX2-derived ROS production (in words): PMA-activated HL-60 cells, 0.05 µM to 50 µM; for IC50: neutrophil-differentiated HL-60 cells, PMA 0.8 µM, DCF fluorescence, 0.05 to 50 µM. As for the experimental part:
The differentiation of HL-60 cells to neutrophils was performed after reaching a concentration of between 2 × 10^6 and 5 × 10^6 cells/mL in the differentiation medium: RPMI 1640 medium; 10% FBS; 100 IU/mL of penicillin/streptomycin; and 1.3% DMSO for 7 days, replenishing the differentiation medium every 2 days.
The 2′,7′-dichlorofluorescein (DCF) fluorescence analysis was used to determine NADPH oxidase activity in neutrophil-differentiated HL-60 cells. The method, based on a fluorimetric assay, was adapted from Boly et al.. Briefly, 1 × 10^6 neutrophil-differentiated HL-60 cells/mL were incubated for 45 min. at 37 °C in darkness with DCF-DA (1 mg/mL). The cell suspension was then transferred to a 15 mL conical tube and centrifuged at 330× g × 10 min at 37 °C. After the supernatant was removed, the cells were re-suspended in Hanks balanced saline buffer (HBSS, Sigma-Aldrich, St. Louis, MO, USA) and transferred to dark 96-well plates with a flat glass bottom (Thermo Scientific Nunc 96 microwell® black, Optical Botton # 1.5 Cover Glass Base, Thermo Fisher Scientific). Then, 200 μL of cell suspension per well were incubated at 37 °C for 30 min with the indole heteroaryl-acrylonitriles at increasing concentrations (0.05 to 50 μM). […] Finally, PMA (0.8 μM) was added to each well for 10 min. to generate the activation of NOX2. The generation of the DCF fluorescence product was monitored in an automatic microplate reader (FLx800, BioTek Instruments, Winooski, VT, USA) at 1-min intervals at 37 °C for 1 h, using an excitation wavelength of 485 nm and an emission wavelength of 555 nm. The ability to inhibit ROS production by activated neutrophil-differentiated HL-60 cells was compared against the different controls. A control was performed with cells activated by PMA in the presence of DMSO and established as having 100% of the ROS-induced fluorescence. Inhibition control was performed in the presence of VAS2870 (20 µM) and activated by PMA. Another control (NA, not activated) was done with cells in the absence of PMA and the indole heteroaryl-acrylonitriles.
All the experiments were performed in triplicate, using three different cell preparations, and the data were reported as mean ± s.e.m. For the determination of the IC50 of the indole heteroaryl-acrylonitriles, concentration-response curves (0.05 to 50 μM) were constructed. IC50 values were given as the mean ± standard deviation for at least three independent assays. The data were analyzed using one- and two-way ANOVA. A value of p < 0.05 was considered statistically significant. Statistical analyses were performed using the program GraphPad Prism® version 6.00, San Diego, CA, USA.

Regarding `N#C/C(=C\c1cc(-c2ccccc2)on1)C(=O)c1c[nH]c2ccccc12` [Compound C6], on NADPH oxidase (NOX2), the “ROS production, lucigenin chemiluminescence (in words)” value is recorded as “significantly reduce ROS production”. For the same molecule, on NOX2, the “inhibition of NOX2-derived ROS production (in words)” value is given as “exhibited concentration-dependent inhibition of NOX2” and the 50% inhibitory concentration (IC50) amounted to 1100 ± 200 nM.
Consider `N#C/C(=C\c1ccncc1)C(=O)c1c[nH]c2ccccc12` [Compound C14], for which, at NADPH oxidase (NOX2), the “ROS production, lucigenin chemiluminescence (in words)” value is on record as “significantly reduce ROS production”. Also, on NOX2, the “inhibition of NOX2-derived ROS production (in words)” value is listed as “exhibited concentration-dependent inhibition of NOX2” and the IC50 was found to be 3600 ± 200 nM.
